Like-named read-outs stand apart in the source and are kept apart here. Positions of bridges follow the written chain, without caps; N, C: chain ends. No end group written: not given here.

In one assay the target is T1, hASIC1b (Homo sapiens, UniProt P78348).
T1 construct: expressed in transfected cells; host or cells: Xenopus laevis oocytes (cRNA injection)
T1 sequence (P78348 1-562 isoform P78348-3): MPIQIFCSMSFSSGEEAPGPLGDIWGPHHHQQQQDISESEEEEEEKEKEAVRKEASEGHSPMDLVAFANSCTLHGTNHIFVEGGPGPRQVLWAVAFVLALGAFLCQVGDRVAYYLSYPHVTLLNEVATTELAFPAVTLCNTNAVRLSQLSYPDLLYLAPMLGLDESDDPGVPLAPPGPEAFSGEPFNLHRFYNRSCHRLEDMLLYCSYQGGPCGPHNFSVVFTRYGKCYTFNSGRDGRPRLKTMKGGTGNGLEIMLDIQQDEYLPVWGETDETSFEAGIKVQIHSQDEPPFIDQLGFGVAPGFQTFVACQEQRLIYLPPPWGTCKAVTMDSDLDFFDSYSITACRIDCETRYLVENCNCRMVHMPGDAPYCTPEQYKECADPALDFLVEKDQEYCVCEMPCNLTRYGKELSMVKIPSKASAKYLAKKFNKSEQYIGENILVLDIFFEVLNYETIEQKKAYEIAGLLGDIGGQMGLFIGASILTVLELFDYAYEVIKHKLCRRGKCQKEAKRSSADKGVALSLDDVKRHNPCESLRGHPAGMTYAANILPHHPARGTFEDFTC
The assay can be described thus: TEVC in Xenopus laevis oocytes expressing hASIC1b. To be noted: for remaining activity at 1 µM: 1 µM peptide, conditioning pH 7.45, mean, n ≥ 5, read-out: I/Icontrol. The format is cell-based. How it is done:
Two-electrode voltage-clamp (TEVC) experiments using Xenopus laevis oocytes were conducted as previously described. Briefly, oocytes were surgically removed from anaesthetised female frogs, then treated with collagenase (~ 1 mg/ml, Sigma type I) for 2 h under agitation at room temperature. cRNAs were synthesised using a mMessage mMachine T7 or SP6 transcription kit (Thermo Fisher Scientific Australia Pty Ltd, Scoresby, VIC, Australia) and injected into healthy stage V–VI oocytes at 0.2–20 ng per cell. Different amounts of RNA were used for different wild-type and mutant constructs, as well as to titrate expression levels to record over multiple days and maintaining consistent expression levels. Injected oocytes were incubated at 17 °C for 1–7 days in 50% Leibovitz’s L-15 medium (Gibco, Thermo Fisher Scientific Australia Pty Ltd, Scoresby, VIC, Australia), supplemented with 25 µg/mL gentamicin, 25 µg/mL streptomycin, and 2.5% fetal horse serum. Membrane currents were recorded 2–7 days after cRNA-injection under voltage-clamp at -60 mV (Axon Axoclamp 900 A, Molecular Devices, CA, USA) using two standard glass microelectrodes of 0.5–1 MΩ resistance when filled with 3 M KCl solution. Data were sampled at 2 kHz and filtered at 0.1 kHz using Clampex 10 software (Molecular Devices, CA, USA). A microperfusion system was used to allow fast extracellular solution exchange (bath volume = ~ 30 µL). All experiments were performed at room temperature (18–23 °C) in ND96 (96 mM NaCl, 2 mM KCl, 1.8 mM CaCl2, 2 mM MgCl2, 5 mM HEPES, pH 7.45). In solutions below pH 6.8, HEPES was replaced by MES. All solutions containing peptides contained 0.05% fatty acid free bovine serum albumin to decrease adsorptive losses of peptide to plasticware. For all channels tested, control current magnitudes between 500 and 9000 nA when tested using a conditioning pH of 7.45 and stimulating pH of 6 (except for the chimeras that were stimulated with pH 5) were used for data collection. Before recording any experiments, oocytes were stimulated multiple times with low pH to minimise and stabilise tachyphylaxis/desensitisation, which were then accounted for during analysis. Complete recovery of currents from Ma-3 induced modulation within 3 min of washout at all channels tested allowed for correction for tachyphylaxis/desensitisation during analyses.
Specific to this work, the standard protocol was for oocytes to be conditioned at pH 7.45 and channels stimulated every 60 s using a 5 s pH 5 or 6 application, unless stated otherwise. For all concentration-response data, peptides were applied for ~ 50 s between each low pH stimulus application. Activation curves were determined by conditioning oocytes at pH 8 (Fig. 2e − g; and Fig. 5a and b) or 7.45 (Fig. 6; and Supplementary Fig. 2d and c) for 55 s and applying low pH stimuli from 7.25 to 5.0 for 5 s. Steady-state desensitisation (SSD) was determined by applying conditioning solutions of pH values from 8 to 6 for 115 s prior to stimulation by a pH drop to 5 for 5 s. Ma-3 was only applied in the conditioning solution for activation and steady-state desensitisation curves in the presence of peptide. Control pH-dependence curves were determined in the absence of any Ma-3. When assessing the effect of Ma-3 on the rASIC1a: ASIC1b chimeras (C92 and C166; and for the comparative wild-type data), the conditioning pH was 7.45 and stimulating pH 5 (Fig. 3b). Specific details of the conditioning and stimulating pH are noted in each figure legend.
Data were analysed using pCLAMP-Clampfit software (Version 11, Molecular Devices, CA, USA) and GraphPad Prism 9.5 and 10.2.2 (GraphPad Software, San Diego, CA, USA). To obtain the Hill coefficient (nH) and half-maximal response (EC50, IC50, or pH50) the Hill equation was fitted to normalised concentration-response curves by using a non-linear fit to the data of a four-parameter logistic equation (“sigmoidal dose-response” in GraphPad Prism 9.5). […]

A further assay addresses T2, rASIC1b N324K (Rattus norvegicus, UniProt P55926, N291K).
T2 construct: expressed in transfected cells; host or cells: Xenopus laevis oocytes injected with cRNA
T2 sequence (P55926 1-559 isoform P55926-3 N324K): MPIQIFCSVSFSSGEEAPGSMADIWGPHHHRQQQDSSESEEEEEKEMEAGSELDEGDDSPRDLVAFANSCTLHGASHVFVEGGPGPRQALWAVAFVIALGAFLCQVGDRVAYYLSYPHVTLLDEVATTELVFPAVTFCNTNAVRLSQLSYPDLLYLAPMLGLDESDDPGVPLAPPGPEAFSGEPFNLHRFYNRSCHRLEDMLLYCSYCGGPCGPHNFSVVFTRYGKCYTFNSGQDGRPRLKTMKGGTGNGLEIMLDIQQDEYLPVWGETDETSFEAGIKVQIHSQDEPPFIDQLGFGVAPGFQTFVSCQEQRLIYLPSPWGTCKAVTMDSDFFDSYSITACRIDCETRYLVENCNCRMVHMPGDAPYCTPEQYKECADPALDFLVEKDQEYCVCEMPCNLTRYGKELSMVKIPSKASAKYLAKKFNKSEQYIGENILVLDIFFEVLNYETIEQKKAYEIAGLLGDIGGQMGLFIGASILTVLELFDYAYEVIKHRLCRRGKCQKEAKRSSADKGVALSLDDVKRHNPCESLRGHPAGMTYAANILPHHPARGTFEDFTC
Put plainly: TEVC oocytes, rASIC1b N324K mutant. Type of assay: cell-based. As to conditions: 300 nM Ma-3, conditioning pH 7.45; Hill fit, n = 5–6. Here is the method:
Two-electrode voltage-clamp (TEVC) experiments using Xenopus laevis oocytes were conducted as previously described. Briefly, oocytes were surgically removed from anaesthetised female frogs, then treated with collagenase (~ 1 mg/ml, Sigma type I) for 2 h under agitation at room temperature. cRNAs were synthesised using a mMessage mMachine T7 or SP6 transcription kit (Thermo Fisher Scientific Australia Pty Ltd, Scoresby, VIC, Australia) and injected into healthy stage V–VI oocytes at 0.2–20 ng per cell. […] Membrane currents were recorded 2–7 days after cRNA-injection under voltage-clamp at -60 mV (Axon Axoclamp 900 A, Molecular Devices, CA, USA) using two standard glass microelectrodes of 0.5–1 MΩ resistance when filled with 3 M KCl solution. […]
Specific to this work, the standard protocol was for oocytes to be conditioned at pH 7.45 and channels stimulated every 60 s using a 5 s pH 5 or 6 application, unless stated otherwise. […] Activation curves were determined by conditioning oocytes at pH 8 (Fig. 2e − g; and Fig. 5a and b) or 7.45 (Fig. 6; and Supplementary Fig. 2d and c) for 55 s and applying low pH stimuli from 7.25 to 5.0 for 5 s. Steady-state desensitisation (SSD) was determined by applying conditioning solutions of pH values from 8 to 6 for 115 s prior to stimulation by a pH drop to 5 for 5 s. […] Control pH-dependence curves were determined in the absence of any Ma-3. […]

For “H-SLKCYQHGAVVTCHRDMKFCYHNIGMPFRNLKLILQGCSSSCSETENNKCCSTDRCNK (disulfide 4-20, 13-38, 42-50, 51-56 (inferred)) [K8A]”, the remaining activity at 1 µM came to 75% on hASIC1b (pH 5 evoked currents) and 165% on hASIC1b (pH 6 evoked currents).

In the case of “H-SLKCYQHGKVVTCHRDAKFCYHNIGMPFRNLKLILQGCSSSCSETENNKCCSTDRCNK (disulfide 4-20, 13-38, 42-50, 51-56 (inferred)) [M16A]”, the values for the remaining activity at 1 µM at hASIC1b (pH 5 evoked currents) and on hASIC1b (pH 6 evoked currents) were 80% and 188%, respectively.

As for “H-SLKCYQHGKVVTCHRDMKFCYHNIGMPFRNLKLILQGCSSSCSETENNKCCSTDRCNK (disulfide 4-20, 13-38, 42-50, 51-56 (inferred)) [Ma-3, mambalgin-3]”, the “pH50 of activation in presence of Ma-3” value at rASIC1b N324K is recorded as 6.21; at hASIC1b (300 nM Ma-3, conditioning pH 7.45, Hill fit, n = 5–6), 6.20. Also, the values for the remaining activity at 1 µM at hASIC1b (pH 5 evoked currents) and on hASIC1b (pH 6 evoked currents) were 69% and 161%, respectively. In addition, on hASIC1b (potentiation at pH 6 vs inhibition at pH 5, conditioning pH 7.45), the “difference in potency between pH 5 and pH 6 stimulus conditions” value is recorded as ~ 10 fold.
